In brackets after ≈: the same amount, converted by molar mass.
What was measured:
[1] = tested on: Trypanosoma cruzi; assay: microbe, parasite or virus in culture; type: functional; conditions: Dm28c, 48 h
Description: Antitrypanosomal activity against Trypanosoma cruzi Dm28c epimastigotes after 48 hrs by resazurin dye based assay

[2] = tested on: Trypanosoma cruzi; assay: microbe, parasite or virus in culture; type: functional; conditions: Y
Description: Antitrypanosomal activity against Trypanosoma cruzi Y epimastigotes resazurin dye based assay

[3] = in vitro; conditions: chlorocebus sabaeus, Vero cells
Description: Cytotoxicity against African green monkey Vero cells 72 hrs by CellTiter-Glo assay

[4] = in vitro; conditions: mouse, RAW264.7 cells
Description: Cytotoxicity against mouse RAW264.7 cells assessed as reduction in cell viability after 48 hrs by MTT assay

[5] = tested on: Leishmania amazonensis; assay: microbe, parasite or virus in culture; type: functional, organism-based; conditions: IFLA/BR/1967/PH8, 48 h
Description: Antileishmanial activity against Leishmania amazonensis IFLA/BR/1967/PH8 promastigotes assessed as reduction in parasite viability IFLA/BR/1967/PH8 after 48 hrs by resazurin dye based assay

[6] = tested on: Leishmania amazonensis; assay: microbe, parasite or virus in culture; type: functional; conditions: IFLA/BR/1967/PH8, 48 h
Description: Antileishmanial activity against Leishmania amazonensis IFLA/BR/1967/PH8 promastigotes after 48 hrs by resazurin dye based assay

[7] = tested on: Leishmania infantum; assay: microbe, parasite or virus in culture; type: functional; conditions: MHOM/BR/1974/PP75, 48 h
Description: Antileishmanial activity against Leishmania infantum MHOM/BR/1974/PP75 promastigotes after 48 hrs by resazurin dye based assay

[8] = tested on: Leishmania infantum; assay: microbe, parasite or virus in culture; type: functional, organism-based; conditions: MHOM/BR/1974/PP75, 48 h
Description: Antileishmanial activity against Leishmania infantum MHOM/BR/1974/PP75 promastigotes assessed as reduction in parasite viability after 48 hrs by resazurin dye based assay

| SMILES | MIC [1] [µM] | MIC [2] [µM] | CC50 at 72 h [3] [µM] | CC50 at 48 h [4] [µM] | IC50 [5] [nM] | MIC [6] [µM] | MIC [7] [µM] | IC50 [8] [nM] |
| --- | --- | --- | --- | --- | --- | --- | --- | --- |
| O=C(Cn1ccnc1[N+](=O)[O-])NCc1ccccc1 [BENZNIDAZOLE] | 32 (≈ 8.33 µg/mL) | 32 (≈ 8.33 µg/mL) | > 500 | 138 |  |  |  |  |
| C[C@@H]1[C@H](O)[C@@H](C)/C=C/C=C/C=C/C=C/C=C/C=C/C=C/[C@H](O[C@@H]2O[C@H](C)[C@@H](O)[C@H](N)[C@@H]2O)C[C@@H]2O[C@](O)(C[C@@H](O)C[C@@H](O)[C@H](O)CC[C@@H](O)C[C@@H](O)CC(=O)O[C@H]1C)C[C@H](O)[C@H]2C(=O)O [AMPHOTERICIN B] |  |  |  | 1 | 1650 | 8 (≈ 7.39 µg/mL) | 8 (≈ 7.39 µg/mL) | 1770 |

Reference: ChEMBL document CHEMBL4433208, “N-Nitrosulfonamides as Carbonic Anhydrase Inhibitors: A Promising Chemotype for Targeting Chagas Disease and Leishmaniasis” (ACS Med Chem Lett, 2019)
